{
  "source": "patent US7595300B2",
  "about": "“7-quinolyl ketolide antibacterial agents” (priority 2005, dated 2009)",
  "key": {"[1]": {"tested_on": "Streptococcus pneumoniae ATCC 6303", "experiment": "rat lower respiratory tract infection (lung pneumonia) model", "type": "in vivo", "settings": "for Log CFU/g (avg, n = 8): rat lungs, 12 hours after the last dose", "protocol": "The in vivo efficacy of compounds (II) and (III) were evaluated in a rat lower respiratory tract infection model. Groups of 8 rats were infected intratracheally with 0.5 mL containing 10^6 CFUs of Streptococcus pneumoniae ATCC 6303 in 5% hog gastric mucin. Compounds dissolved in ethanol were administered by oral gavage daily over 3 days starting 18 hours post-inoculation. Lungs were aseptically removed from survivors 12 hours after the last dose and examined for visible signs of infection, then homogenized in sterile PBS and plated for determination of CFUs by log plating on Columbia agar-nalidixic acid plates."}, "M. catarrhalis": {"tested_on": "M. catarrhalis", "experiment": "MIC, NCCLS broth microdilution, respiratory pathogens", "type": "cell-based", "settings": "Moraxella catarrhalis", "protocol": "(§1) Minimum inhibitory concentrations (“MICs”) were determined by the NCCLS broth microdilution procedure for susceptibility testing for bacteria that grow aerobically (National Committee for Clinical Laboratory Standards, 1997. Methods for dilution antimicrobial susceptibility tests for bacteria that grow aerobically, 4th ed. Approved standard. NCCLS Document M7-A4. National Committee for Clinical Laboratory Standards, Villanova, Pa.). Stock solutions were prepared on the day of the test and appropriate aliquots were added to cation adjusted Mueller-Hinton broth (CAMHB, DIFCO) or Haemophilus test media. Two-fold serial dilutions were prepared and added to wells in microtiter plates. Final test concentrations ranged from 8 to 0.004 ug/ml. Broth cultures of bacteria inoculated from growth on overnight plates for all test bacteria except Streptococcus pneumoniae and Haemophilus influenzae were incubated at 35° C. and then adjusted to the Kirby Bauer standard and diluted in CAMHB to achieve a final inoculum concentration of approximately 5×10^5 CFU/ml. Inocula for S. pneumoniae and H. influenzae were prepared by directly suspending colonies from an overnight plate, adjusting the turbidity and diluting as above. S. pneumoniae media was supplemented with 3% lysed horse blood. All plates were incubated in ambient air at 35° C. for 20-24 h for S. pneumoniae and Haemophilus influenzae and 16-20 h for all other bacteria."}, "S. pyogenes": {"tested_on": "S. pyogenes", "experiment": "MIC, NCCLS broth microdilution, respiratory pathogens", "type": "cell-based", "settings": "Streptococcus pyogenes", "protocol": "as §1"}, "Haemophilus influenzae": {"tested_on": "Haemophilus influenzae", "experiment": "MIC, NCCLS broth microdilution, respiratory pathogens", "type": "cell-based", "settings": "H. influenzae", "protocol": "as §1"}, "Streptococcus pneumoniae": {"tested_on": "Streptococcus pneumoniae", "experiment": "MIC, NCCLS broth microdilution, respiratory pathogens", "type": "cell-based", "settings": "S. pneumoniae", "protocol": "as §1"}, "human hepG2 hepatocytes": {"tested_on": "human hepG2 hepatocytes", "experiment": "In vitro hepatotoxicity, resazurin and Nile Red staining", "type": "cell-based", "settings": "100 μM", "protocol": "In one experiment, hepatotoxicity was estimated by overnight incubation of compounds at 3, 10, 30, 100, or 300 μM with cultured rat or human hepG2 hepatocytes, followed by staining of the cells with resazurin to measure viability or with Nile Red to measure steatosis. The minimal drug concentration at which changes in dye binding were observed was noted as the minimal effective concentration. The compound of formula (VIII) wherein Z=3-quinolyl affected […] and steatosis in human HepG2 hepatocytes at 30 μM."}, "P. granulosum": {"tested_on": "P. granulosum", "experiment": "MIC, NCCLS Reference Agar Dilution Method for anaerobic bacteria", "type": "cell-based, Propionibacterium granulosum", "protocol": "Minimum inhibitory concentrations (“MICs”) were determined by the NCCLS Reference Agar Dilution Method (M11-A5, Vol. 21, No. 2) for anaerobic bacteria. A panel of 84 antibiotic-susceptible and resistant strains of Propionibacteria from distinct geographic locations were selected. Following revival from frozen stocks, each strain was purity plated onto Wilkins Chalgren Agar, pH 7.2 (Oxoid, UK), and the appropriate antibiotic resistance/susceptibility phenotype was confirmed by antibiotic disc testing. Each strain was subjected to an agar dilution MIC assay. […] The inocula for each batch of strains were prepared from 7-day old Wilkins Chalgren Agar plate cultures by resuspension of colonies in Wilkins Chalgren Anaerobe broth, pH 7.2 (Oxoid, UK) to an optical density (OD600) of 0.2±0.02. The inoculum (1.0-2.0 μL) for each strain was applied to a Wilkins Chalgren Agar MIC plate in a grid pattern using a Multipoint Inoculator (Denley, UK). All agar plates were incubated at 37° C. for 3 days under anaerobic conditions in AnaeroPack 7 liter rectangular jars (Mitsubishi Gas Chemical Company, Inc., Japan)."}, "anesthetized rats": {"tested_on": "anesthetized rats", "experiment": "Cardiovascular safety, QT interval in anesthetized rats, i.v. bolus", "type": "in vivo, rat", "settings": "rat", "protocol": "Total doses of drug (0.47, 0.94, 1.88, 3.75, 7.5, and 15 mg/kg) or equivalent volumes of vehicle were administered incrementally as an i.v. bolus to groups of 6 anesthetized rats or guinea pigs at 0, 15, 30, 45, 60, and 75 minutes. Hemodynamic parameters including mean arterial pressure (MAP) and heart rate (HR), and ECG parameters (QT and PR intervals and QRS duration) were recorded. For the rat, injection of vehicle gave a 16% increase in QT interval over baseline. For the guinea pig, injection of vehicle gave a 3% increase in QT interval over baseline."}, "[2]": {"settings": "genotype sensitive, read-out: MIC50"}, "[3]": {"settings": "genotype sensitive, read-out: MIC90"}},
  "note": "Where two headings read alike, the source gives them in different places.",
  "data": [
    {"smiles": "CC1CC(N(C)C)C(O)C(O[C@@H]2[C@@H](C)C(=O)[C@](C)(F)C(=O)O[C@H](CCF)[C@@]3(C)OC(=O)N[C@@H]3[C@@H](C)C(=O)[C@H](C)C[C@@]2(C)OC/C=C/c2ccc3cccnc3c2)O1", "note": "(stereo partly shown) [Compound (III), 6-O-(1-(7-quinolyl)-3-propenyl)-11-amino-11-deoxy-3-(descladinosyl)-3-oxo-2,15-difluoroerythromycin A-11,12-cyclic carbamate]", "values": [
      {"measurement": "Log CFU/g (avg, n = 8)", "setting": "[1]; 0.5 mg/kg oral gavage daily over 3 days", "value": 3.9, "unit": "Log CFU/g"},
      {"measurement": "Log CFU/g (avg, n = 8)", "setting": "[1]; 2.5 mg/kg oral gavage daily over 3 days", "value": 3.0, "unit": "Log CFU/g"},
      {"measurement": "% survivors", "setting": "[1]; rat, 0.5 mg/kg oral gavage daily over 3 days", "value": 100, "unit": "%"},
      {"measurement": "% survivors", "setting": "[1]; rat, 2.5 mg/kg oral gavage daily over 3 days", "value": 100, "unit": "%"},
      {"measurement": "reducing the bacterial load in the rat lungs and increasing survival relative to control animals", "setting": "[1]; rat, oral gavage daily over 3 days", "value": "efficacious"},
      {"measurement": "MIC50", "setting": "M. catarrhalis", "value": 0.12, "unit": "µg/mL"},
      {"measurement": "MIC90", "setting": "M. catarrhalis", "value": 0.12, "unit": "µg/mL"},
      {"measurement": "MIC50", "setting": "S. pyogenes; genotype ermB", "value": 0.12, "unit": "µg/mL"},
      {"measurement": "MIC90", "setting": "S. pyogenes; genotype ermB", "value": 1, "unit": "µg/mL"},
      {"measurement": "MIC50", "setting": "S. pyogenes; genotype mef, read-out: MIC50", "value": 0.12, "unit": "µg/mL"},
      {"measurement": "MIC90", "setting": "S. pyogenes; genotype mef, read-out: MIC90", "value": 0.12, "unit": "µg/mL"},
      {"measurement": "MIC50", "setting": "S. pyogenes; [2]", "value": 0.06, "unit": "µg/mL"},
      {"measurement": "MIC90", "setting": "S. pyogenes; [3]", "value": 0.06, "unit": "µg/mL"},
      {"measurement": "MIC50", "setting": "Haemophilus influenzae; resistant", "value": "> 8", "unit": "µg/mL"},
      {"measurement": "MIC90", "setting": "Haemophilus influenzae; resistant", "value": "> 8", "unit": "µg/mL"},
      {"measurement": "MIC50", "setting": "Haemophilus influenzae; sensitive", "value": 2, "unit": "µg/mL"},
      {"measurement": "MIC90", "setting": "Haemophilus influenzae; sensitive", "value": 4, "unit": "µg/mL"},
      {"measurement": "MIC50", "setting": "Streptococcus pneumoniae; 20 h, genotype ermB + mef", "value": 0.5, "unit": "µg/mL"},
      {"measurement": "MIC50", "setting": "Streptococcus pneumoniae; genotype ermB", "value": 0.12, "unit": "µg/mL"},
      {"measurement": "MIC90", "setting": "Streptococcus pneumoniae; genotype ermB", "value": 0.12, "unit": "µg/mL"},
      {"measurement": "MIC90", "setting": "Streptococcus pneumoniae; genotype ermB + mef", "value": 1, "unit": "µg/mL"},
      {"measurement": "MIC50", "setting": "Streptococcus pneumoniae; genotype mef, read-out: MIC50", "value": 0.25, "unit": "µg/mL"},
      {"measurement": "MIC90", "setting": "Streptococcus pneumoniae; genotype mef, read-out: MIC90", "value": 0.25, "unit": "µg/mL"},
      {"measurement": "MIC50", "setting": "Streptococcus pneumoniae; [2]", "value": 0.03, "unit": "µg/mL"},
      {"measurement": "MIC90", "setting": "Streptococcus pneumoniae; [3]", "value": 0.03, "unit": "µg/mL"},
      {"measurement": "effects on metabolic stability and steatosis", "setting": "human hepG2 hepatocytes", "value": "No effects"},
      {"measurement": "MIC range", "setting": "P. granulosum; marker RNA 2058, phenotype EryR", "value": 8, "unit": "µg/mL"},
      {"measurement": "MIC range", "setting": "P. granulosum; marker RNA 2059, phenotype EryR", "value": "0.125 to 2", "unit": "µg/mL"},
      {"measurement": "MIC range", "setting": "P. granulosum; marker ermX, phenotype EryR", "value": "4 to 32", "unit": "µg/mL"},
      {"measurement": "MIC range", "setting": "P. granulosum; marker none, phenotype none", "value": 0.06, "unit": "µg/mL"},
      {"measurement": "effect on the QT interval in the rat", "setting": "anesthetized rats", "value": "did not prolong the QT interval"}
    ]}
  ]
}
